Counter-ions that a name gives are not always drawn. Like-named read-outs stand apart in the source and are kept apart here.
Experiments:
corn [1] = experiment: Example 7, Procedure II: Herbicide No. 1 + metolachlor (No. 12) with antidotes; format: in vivo; conditions: Herbicide No.12 3.36 kg/ha alone
Experimental: (§1) Containers were filled and compacted with a fumigated silt loam top soil to a depth of about 1.3 cm from the top of the container. A first container was designated as an untreated control, a second container was designated as a herbicide control, and a third container was designated as a herbicide + antidote test container. Each of the containers was seeded with a crop species. A measured amount of herbicide dispersed or dissolved in acetone was applied to a measured quantity of soil. To this same quantity of soil treated with herbicide, there was added a measured amount of antidote dispersed or dissolved in acetone. The quantity of soil treated with the herbicide and antidote was thoroughly mixed to incorporate the herbicide and antidote in the soil uniformly. The seed bed in the third container of soil was covered with the soil treated with the herbicide and antidote and the container was leveled. For each test series, the seed beds of the first and second containers were likewise covered by soil layers. the cover layer of the first container was not treated with herbicide or antidote.
(§2) The containers were then placed on a bench in a greenhouse and sub-irrigated as required for the duration of the test. […] Plant response is measured in terms of percent injury. Antidote efficacy is indicated as the difference in plant injury by the herbicide(s) without the antidote and with the antidote.
(§3) This procedure is the same as Procedure I, but modified in the manner that after incorporation of the chemicals (herbicide and antidote) the containers with the covered seedbed were treated with an initial overhead irrigation equivalent to 0.6 cm rainfall, then subsequently sub-irrigated as required on greenhouse benches.
(§4) In this example, Procedure II described above was followed. The data from the tests in this example is shown in Table 6 and represents averages of duplicate replications.
(§5) The tests in this example followed the same procedure and antidotes used in Example 6. However, Herbicide No. 12 (metolachlor) was used as the co-herbicide with Herbicide No. 1.

[2] = tested on: barnyardgrass (Echinochloa crusgalli); experiment: as above; format: in vivo; conditions: Herbicide No.12 3.36 kg/ha alone
Experimental: as §1, §2, §3
(§6) In the series of greenhouse tests described below, for routine screening purposes the herbicide/antidote compositions were tested in crop/weed combinations involving corn as the crop and either or both of the weeds barnyardgrass (Echinochloa crusgalli), a monocotyledonous weed, and velvetleaf (Abutilon theophrasti), a dicotyledonous weed. In the tables below, these weeds are indicated by the symbols "BYG" and "VL", respectively.
as §4, §5

[3] = tested on: velvetleaf (Abutilon theophrasti); experiment: as above; format: in vivo; conditions: Herbicide No.12 3.36 kg/ha alone
Experimental: as §1, §2, §3, §6, §4, §5

corn [4] = experiment: Example 24, Procedure II: Herbicide No. 1 + co-herbicides Nos. 4, 6, 7, 12 with Antidote Nos. 15 and 17-21; format: in vivo; conditions: antidote 2.24 kg/ha; highest test rate (0.56 kg/ha) of Herbicide No. 1 + co-herbicide
Experimental: as §1, §2, §3
In other greenhouse tests, using Procedure II described above, the safening efficacy of Antidote Nos. 15 and 17-21 was evaluated against Herbicide No. 1 in corn in the presence of Giant foxtail (Setaria fabergi) and Velvetleaf (Abutilon theophrasti) as representative annual monocotyledonous and dicotyledonous weeds, respectively.
Test results are shown in Tables 23A and 23B wherein the indicated plant inhibition represents the average of duplicate replications, with observations being made thirteen (13) days after application of the chemicals. Giant foxtail and Velvetleaf are represented by the symbols "GFT" and "VL", respectively. The data in Table 23A show the test results using the antidotes at 2.24 kg/ha, whereas in Table 23B, the antidotal rate was reduced to 0.56 kg/ha.
The tests described in Example 23 were duplicated, but in this example a variety of co-herbicides were included to ascertain the efficacy of the antidotes against combinations of Herbicide No. 1 and Herbicides Nos. 4, 6, 7 and 12 as co-herbicides. Test results are shown in Table 24, wherein the antidote application rate was 2.24 kg/ha.

corn [5] = experiment: Example 25, greenhouse preemergence test: Antidote Nos. 1 and 2 against Herbicide Nos. 1-3; format: in vivo, Corn (Pioneer 3424 variety); conditions: no antidote
Experimental: The chemicals were tested in both preemergence and post-emergence modes of application. The herbicides were prepared and applied as wettable powders; dichlormid was applied as an emulsifiable concentrate, while the naphthalic anhydride was applied as a coating on the corn seed prior to planting.
Test data from the preemergence tests are shown in Table 25A and from the post-emergence tests in Table 25B. In the tables, the concentration of chemicals is shown in terms of active ingredient in grams per hectare (G/ha); concentrations of the naphthalic anhydride were not measured per se, but were present as in conventional, normally-coated applications. Corn injury is shown in terms of percent inhibition of growth.

corn [6] = experiment: Example 8, Procedure II: Herbicide No. 1 + butachlor (No. 9) with antidotes; format: in vivo; conditions: Herbicide No.9 2.24 kg/ha alone
Experimental: as §1, §2, §3
(§7) In this test, the efficacy of the same five antidotes used in Examples 6 and 7 was investigated in compositions comprising Herbicide No. 1 and as a co-herbicide, butachlor (Herbicide No. 9), active ingredient in MACHETE® herbicide, a leading commercial rice herbicide. The test procedure used in this example was the same as that in Examples 6 and 7.

[7] = tested on: barnyardgrass (Echinochloa crusgalli); experiment: as above; format: in vivo; conditions: Herbicide No.9 2.24 kg/ha alone
Experimental: as §1, §2, §3, §6, §7

[8] = tested on: velvetleaf (Abutilon theophrasti); experiment: as above; format: in vivo; conditions: Herbicide No.9 2.24 kg/ha alone
Experimental: as §1, §2, §3, §6, §7

corn [9] = experiment: Example 3, Procedure I: antidotes against Herbicide No. 1; format: in vivo
Experimental: as §1, §2
(§8) This example details the results of tests with Antidote Nos. 12, 15 and 16 to safen Herbicide No. 1 over application rates ranging from 4.48 kg/ha down to 0.56 kg/ha, in corn in the presence of barnyardgrass. Procedure I described above was used in these tests.

[10] = tested on: barnyardgrass (Echinochloa crusgalli); experiment: as above; format: in vivo
Experimental: as §1, §2, §6, §8

corn [11] = experiment: Example 6, Procedure II: Herbicide No. 1 + alachlor (No. 7) with antidotes; format: in vivo; conditions: Herbicide No.7 4.48 kg/ha alone
Experimental: as §1, §2, §3
(§9) This example was designed to investigate the antidotal efficacy of a plurality of antidotal compounds against a composition comprising Herbicide No. 1 in combination with Herbicide No. 7 (alachlor). The antidotal compounds used herein were Nos. 1, 2, 7, 13 and 15.
as §4

[12] = tested on: barnyardgrass (Echinochloa crusgalli); experiment: as above; format: in vivo; conditions: Herbicide No.7 4.48 kg/ha alone
Experimental: as §1, §2, §3, §6, §9, §4

[13] = tested on: velvetleaf (Abutilon theophrasti); experiment: as above; format: in vivo; conditions: Herbicide No.7 4.48 kg/ha alone
Experimental: as §1, §2, §3, §6, §9, §4

corn [14] = experiment: Example 12, Procedure II: Herbicide No. 1 + acetochlor (No. 6) with thirteen antidotes; format: in vivo
Experimental: as §1, §2, §3
This example was designed to investigate the efficacy of thirteen different antidotes from different classes of chemistry as safeners against compositions of Herbicide No. 1 and acetochlor (Herbicide No. 6) as co-herbicide. Acetochlor is the active ingredient in the commercial herbicides GUARDIAN® and WENNER®.
The test procedure used in this example was Procedure II described above.

corn [15] = experiment: Example 20, Procedure II: Herbicide No. 1 + EPTC or ERADICANE EXTRA with Antidote Nos. 5 and 15; format: in vivo
Experimental: as §1, §2, §3
(§10) This example describes experiments designed to test two generally efficacious antidotal compounds, i.e., Antidote Nos. 5 and 15, against the herbicidal action of the sulfonylurea compound, Herbicide No. 1, and the commercial herbicides EPTC (Herbicide No. 4) and ERADICANE® EXTRA (EPTC + R-29148, Antidote No. 5). Procedure II above was used in conducting these experiments. Formulations of EPTC and ERADICANE EXTRA were applied onto soil cover layers (to be applied over seed beds), followed by sequential pipetting of Herbicide No. 1 and Antidote No. 15. The soil was mixed to homogeneity and spread over the seed beds followed by 0.6 cm of overhead irrigation.

[16] = tested on: velvetleaf (Abutilon theophrasti); experiment: as above; format: in vivo
Experimental: as §1, §2, §3, §6, §10

[17] = Herb. No. 1 0.56 kg/ha + antidote 0.56 kg/ha
[18] = Herb. No. 1 0.56 kg/ha + antidote 2.24 kg/ha
[19] = Herb. No. 1 0.56 kg/ha + antidote 8.96 kg/ha
[20] = Herb. No. 1 1.12 kg/ha + antidote 0.56 kg/ha
[21] = Herb. No. 1 1.12 kg/ha + antidote 2.24 kg/ha
[22] = Herb. No. 1 1.12 kg/ha + antidote 8.96 kg/ha
[23] = Herb. No. 1 2.24 kg/ha + antidote 0.56 kg/ha
[24] = Herb. No. 1 2.24 kg/ha + antidote 2.24 kg/ha
[25] = Herb. No. 1 2.24 kg/ha + antidote 8.96 kg/ha
[26] = Herb. No. 1 4.48 kg/ha + antidote 0.56 kg/ha
[27] = Herb. No. 1 4.48 kg/ha + antidote 2.24 kg/ha
[28] = Herb. No. 1 4.48 kg/ha + antidote 8.96 kg/ha
[29] = antidote 8.96 kg/ha alone, no herbicide
[30] = Herbicide No. 4 2.24 kg/ha alone
[31] = Herbicide No. 4 4.48 kg/ha alone
[32] = Herbicide No. 4 6.72 kg/ha alone

CCc1cccc(C)c1N(C(=O)CCl)C(C)COC (stereo not drawn) [Herbicide No. 12, 2-Chloro-N-(2-methoxy-1-methylethyl)-6'-ethyl-o-acetotoluidide, reference compound]
% Injury Corn (corn [1]): 0%
% Injury BYG [2]: 100%
% Injury VL [3]: 20%

O=C(O)COC(c1ccccc1)c1ccccc1 [Antidote No. 18, Acetic acid, (diphenylmethoxy)- sodium salt, hemihydrate]
safening of corn, assessment in words (corn [4]): failed to safen

N-[(4,6-dimethoxypyridin-2-yl)aminocarbonyl]-3-chloro-4-ethoxycarbonyl-1-methylpyrazole-5-sulfonamide [Herbicide No. 2]
% Inhibition Corn (corn [5]; Preemergence, herbicide alone 0.25 G/ha): 21.7%
% Inhibition Corn (corn [5]; Preemergence, herbicide alone 0.74 G/ha): 36.4%
% Inhibition Corn (corn [5]; Preemergence, herbicide alone 2.5 G/ha): 42.7%

CCCCOCN(C(=O)CCl)c1c(CC)cccc1CC [Herbicide No. 9, 2-Chloro-2',6'-diethyl-N-(butoxymethyl)acetanilide, reference compound]
% Injury Corn (corn [6]): 5%
% Injury BYG [7]: 99%
% Injury VL [8]: 25%

CC1COc2ccccc2N1C(=O)C(Cl)Cl (stereo not drawn) [Antidote No. 17, 4-(Dichloroacetyl)-3,4-dihydro-3-methyl-2H-1,4-benzoxazine]
safening of corn, assessment in words (corn [4]): failed to safen

CC1(C)OC(c2cccs2)CN1C(=O)C(Cl)Cl (stereo not drawn) [compound 11]
% Injury Corn (corn [9]; [17]): 15%
% Injury Corn (corn [9]; [18]): 0%
% Injury Corn (corn [9]; [19]): 0%
% Injury Corn (corn [9]; [20]): 5%
% Injury Corn (corn [9]; [21]): 0%
% Injury Corn (corn [9]; [22]): 0%
% Injury Corn (corn [9]; [23]): 30%
% Injury Corn (corn [9]; [24]): 0%
% Injury Corn (corn [9]; [25]): 0%
% Injury Corn (corn [9]; [26]): 50%
% Injury Corn (corn [9]; [27]): 30%
% Injury Corn (corn [9]; [28]): 5%
% Injury Corn (corn [9]; [29]): 15%
% Injury BYG [10, 17]: 70%
% Injury BYG [10, 18]: 20%
% Injury BYG [10, 19]: 0%
% Injury BYG [10, 20]: 80%
% Injury BYG [10, 21]: 15%
% Injury BYG [10, 22]: 0%
% Injury BYG [10, 23]: 75%
% Injury BYG [10, 24]: 30%
% Injury BYG [10, 25]: 0%
% Injury BYG [10, 26]: 80%
% Injury BYG [10, 27]: 80%
% Injury BYG [10, 28]: 50%
% Injury BYG [10, 29]: 0%

CCOC(=O)c1cnn(C)c1S(=O)(=O)NC(=O)Nc1nc(OC)cc(OC)n1 [Herbicide No. 3, N-[(4,6-dimethoxypyrimidin-2-yl)aminocarbonyl]-4-ethoxycarbonyl-1-methylpyrazole-5-sulfonamide]
inhibition at 0.07 g/ha (corn [5]; Zea mays, pre-emergence, Preemergence, herbicide alone 0.07 G/ha): 19.1%
inhibition at 0.25 g/ha (corn [5]; Zea mays, pre-emergence, Preemergence, herbicide alone 0.25 G/ha, read-out: % Inhibition Corn): 80.9%
inhibition at 0.74 g/ha (corn [5]; Zea mays, pre-emergence, Preemergence, herbicide alone 0.74 G/ha): 80.9%
inhibition at 0.25 g/ha (corn [5]; Zea mays, pre-emergence, preemergence, Herbicide No. 3 0.25 G/ha, read-out: corn injury, percent inhibition of growth): 80.9%

CCc1cccc(CC)c1N(COC)C(=O)CCl [Herbicide No. 7, 2-Chloro-2',6'-diethyl-N-(methoxymethyl)acetanilide, reference compound]
% Injury Corn (corn [11]): 10%
% Injury BYG [12]: 100%
% Injury VL [13]: 25%

CCOCN(C(=O)CCl)c1c(C)cccc1CC [Herbicide No. 6, 2-Chloro-N-(ethoxymethyl)-6'-ethyl-o-acetoluidide, reference compound]
injury to corn (corn [14]; Herbicide No. 6 2.24 kg/ha, without an antidote): 25%

COC(=O)COC(c1ccccc1)c1ccccc1 [Antidote No. 20, Acetic acid, (diphenylmethoxy)-, methyl ester]
safening of corn, assessment in words (corn [4]): failed to safen

CCCN(CCC)C(=O)SCC [No. 4]
% Injury Corn (corn [15]; [30]): 0%
% Injury Corn (corn [15]; [31]): 0%
% Injury Corn (corn [15]; [32]): 10%
% Injury VL [16, 30]: 0%
% Injury VL [16, 31]: 0%
% Injury VL [16, 32]: 18%

N#CC(=NOCC1OCCO1)c1ccccc1 [Antidote No. 6, Benzeneacetonitrile, α-{[(1,3-dioxolan-2-yl)methoxy]imino}-]
safening of corn, assessment in words (corn [14]; Herbicide No. 1:Herbicide 6:Antidote 0.14:2.24:2.24 kg/ha): performed at commercial levels
safening of corn, assessment in words (corn [14]; Herbicide No. 1:Herbicide 6:Antidote 0.14:2.24:8.96 kg/ha): performed at commercial levels

— EP0603240B1, “SAFENING HERBICIDAL PYRAZOLYLSULFONYLUREAS” (priority 1991, dated 1993)
